Results taken from patent publication US20230392111A1, “COMPOSITION FOR PROMOTING THE GROWTH OF LACTIC ACID BACTERIA COMPRISING GROWTH FACTORS” (priority 2020, published 2023).

Assays:
Assay in all cases: Viable cell count after culture in supplemented BL broth
Assay type in all cases: cell-based
Settings in all cases: Exp. Ex. 1 carbon source; 2 parts by weight in 100 parts BL broth; 20 hours; pH about 5.0 to 6.5
[1] = system: Streptococcus thermophilus CBT-ST3 (KCTC 11870BP)
Method: (§1) To promote the growth of non-specific various types of lactic acid bacteria, an optimal mixture composition was determined by culturing each of the following strains using each component, ratio and composition and measuring the viable cell count of each of the strains: Lactobacillus casei CBT-LC5 (accession number: KCTC 12398BP), Lactobacillus plantarum CBT-LP3 (accession number: KCTC 10782BP), Lactobacillus rhamnosus CBT-LR5 (accession number: KCTC 12202BP), Bifidobacterium longum CBT-BG7 (accession number: KCTC 12200BP), Bifidobacterium lactis CBT-BL3 (accession number: KCTC 11904BP), Bifidobacterium bifidum CBT-BF3 (accession number: KCTC 12199BP), Streptococcus thermophilus CBT-ST3 (accession number: KCTC 11870BP), and Pediococcus pentosaceus CBT-SL4 (accession number: KCTC 10297BP). Starter cultures were prepared using BL broth.
(§2) 0.1 to 1 part by weight of each of the starter cultures was inoculated into 100 parts by weight of each prepared medium, and then cultured for 20 hours while the pH was maintained at about 5.0 to 6.5. […] Thus, glucose or fructooligosaccharide was selected as a carbon source for a subsequent experiment (Table 2). […]
(§3) 0.1 to 1 part by weight of each starter culture was inoculated into 100 parts by weight of each of the prepared media, and then cultured for 20 hours while the pH was maintained at about 5.0 to 6.5. […]

[2] = system: Lactobacillus rhamnosus CBT-LR5 (KCTC 12202BP)
Method: as §1, §2, §3

[3] = system: Lactobacillus plantarum CBT-LP3 (KCTC 10782BP)
Method: as §1, §2, §3

[4] = system: Pediococcus pentosaceus CBT-SL4 (KCTC 10297BP)
Method: as §1, §2, §3

[5] = system: Bifidobacterium lactis CBT-BL3 (KCTC 11904BP)
Method: as §1, §2, §3

[6] = system: Bifidobacterium bifidum CBT-BF3 (KCTC 12199BP)
Method: as §1, §2, §3

[7] = system: Lactobacillus casei CBT-LC5 (KCTC 12398BP)
Method: as §1, §2, §3

[8] = system: Bifidobacterium longum CBT-BG7 (KCTC 12200BP)
Method: as §1, §2, §3

OC[C@H]1O[C@@H](O[C@H]2[C@H](O)[C@@H](O)C(O)O[C@@H]2CO)[C@H](O)[C@@H](O)[C@H]1O (stereo partly drawn) [Lactose]
viable cell count [1]: 450 ×10^7 cfu/ml
viable cell count [2]: 405 ×10^7 cfu/ml
viable cell count [3]: 550 ×10^7 cfu/ml
viable cell count [4]: 520 ×10^7 cfu/ml
viable cell count [5]: 420 ×10^7 cfu/ml
viable cell count [6]: 460 ×10^7 cfu/ml
viable cell count [7]: 405 ×10^7 cfu/ml
viable cell count [8]: 456 ×10^7 cfu/ml

O=C(CO)[C@@H](O)[C@H](O)[C@H](O)CO [Fructose]
viable cell count [1]: 402 ×10^7 cfu/ml
viable cell count [2]: 486 ×10^7 cfu/ml
viable cell count [3]: 452 ×10^7 cfu/ml
viable cell count [4]: 550 ×10^7 cfu/ml
viable cell count [5]: 522 ×10^7 cfu/ml
viable cell count [6]: 434 ×10^7 cfu/ml
viable cell count [7]: 408 ×10^7 cfu/ml
viable cell count [8]: 405 ×10^7 cfu/ml

OC[C@H]1O[C@@](CO)(O[C@H]2O[C@H](CO)[C@@H](O)[C@H](O)[C@H]2O)[C@@H](O)[C@@H]1O [Refined sugar]
viable cell count [1]: 504 ×10^7 cfu/ml
viable cell count [2]: 425 ×10^7 cfu/ml
viable cell count [3]: 427 ×10^7 cfu/ml
viable cell count [4]: 580 ×10^7 cfu/ml
viable cell count [5]: 472 ×10^7 cfu/ml
viable cell count [6]: 325 ×10^7 cfu/ml
viable cell count [7]: 482 ×10^7 cfu/ml
viable cell count [8]: 464 ×10^7 cfu/ml
